How the values were obtained:
Assay in all cases: relative viability (nuclei count vs DMSO), 5 days (fraction); higher = more cells survive
[1] = compound: CCC1=CN=CN=C1N2CCN(CC2)CC3=NC4=C(N3)C=C(C=C4)C(F)(F)F + CC(C)C[C@H](NC(=O)[C@H](Cc1ccccc1)NC(=O)c1cnccn1)B(O)O [Bortezomib] (partner 0.002 µM)
Procedure, shortened: (§1)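 Relative viability was taken as the ratio of nuclei in treated wells to nuclei in vehicle wells. Lung cancer cell lines in 1536-well plates received compounds by pin tool one day after seeding, either one drug alone or a fixed anchor-drug dose plus five library-drug doses (not always all listed) in √10 steps. Nuclei were counted on 4× images after 5 days of treatment, and values are medians of duplicate plates.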

[2] = compound: CCn1c(-c2nonc2N)nc2cnc(Oc3cccc(NC(=O)c4ccc(OCCN5CCOCC5)cc4)c3)cc21 + CC(C)C[C@H](NC(=O)[C@H](Cc1ccccc1)NC(=O)c1cnccn1)B(O)O [Bortezomib] (partner 0.002 µM)
Procedure, shortened: as §1

[3] = compound: CCn1c(-c2nonc2N)nc2cnc(Oc3cccc(NC(=O)c4ccc(OCCN5CCOCC5)cc4)c3)cc21 + C[C@@H](Oc1cc(-c2cnn(C3CCNCC3)c2)cnc1N)c1c(Cl)ccc(F)c1Cl [Crizotinib] (partner 1 µM)
Procedure, shortened: as §1

[4] = compound: CCn1c(-c2nonc2N)nc2cnc(Oc3cccc(NC(=O)c4ccc(OCCN5CCOCC5)cc4)c3)cc21 + Cc1nc(Nc2ncc(C(=O)Nc3c(C)cccc3Cl)s2)cc(N2CCN(CCO)CC2)n1 [Dasatinib] (partner 0.075 µM)
Procedure, shortened: as §1

Cell Line	relative viability ([1]; first compound 0.04 µM)	relative viability ([1]; first compound 0.1265 µM)	relative viability ([1]; first compound 0.4 µM)	relative viability ([1]; first compound 1.265 µM)	relative viability ([1]; first compound 4 µM)	relative viability ([2]; first compound 0.04 µM)	relative viability ([2]; first compound 0.1265 µM)	relative viability ([2]; first compound 0.4 µM)	relative viability ([2]; first compound 1.265 µM)	relative viability ([2]; first compound 4 µM)	relative viability ([3]; first compound 0.04 µM)	relative viability ([3]; first compound 0.1265 µM)	relative viability ([3]; first compound 0.4 µM)	relative viability ([3]; first compound 1.265 µM)	relative viability ([3]; first compound 4 µM)	relative viability ([4]; first compound 0.04 µM)	relative viability ([4]; first compound 0.1265 µM)	relative viability ([4]; first compound 0.4 µM)	relative viability ([4]; first compound 4 µM)	relative viability ([4]; first compound 1.265 µM)
HCC-15	0.931	0.921	0.953	1.08	1.05	1.2	0.992	0.882	0.757	0.913	0.961	0.746	0.723	0.75	0.772	0.618	0.464	0.349	0.395	
NCI-H727	0.998	0.689	0.876		0.744	1.44	0.983	0.787	0.97	0.88	1.16	1.04	1.14	0.835	0.823	0.507	0.621	0.405	0.521	0.467
NCI-H2009	1.13	0.999	1.03	0.716	0.982	1.06	0.875	0.647	0.322	0.318	0.987	0.847	0.754	0.41	0.258	0.266	0.144	0.136	0.152	0.148
ChaGo-K-1		0.97	0.964	1.09	0.985	1.45	0.892	0.752		0.688	1.31	1.04	0.96		0.633	0.592	0.442	0.365	0.395	0.394
COR-L23	0.988	0.91	0.964	0.956	0.957	1.08	0.646	0.238	0.185	0.193	0.598	0.341	0.329	0.133	0.107	0.47	0.336	0.173	0.121	0.164
EMC-BAC-2	1.07	1.01	1.05	0.917	1.15	1.18	0.967	0.792	0.731	0.442	0.904	0.823	0.789	0.733	0.701	0.305	0.244	0.134	0.154	0.161
LCLC-103H	1.04	0.959	1.07	1.07	1.18	1.08	1.11	0.932	0.651	0.716	1.08	1.09	0.962	1.01	0.967	0.532	0.37	0.134	0.178	0.227
NCI-H3122	1.11	0.968	1	1.03	1.05	1.05	1.01	0.93	0.691	0.738	0.266	0.298	0.342	0.318	0.346	0.955	0.82	0.651	0.525	0.554
NCI-H2126	1.05	1.08	1.19	1.16	1.14	1.14	1.13	0.918	1.08	1.08	1.05	1.05	1.04	1.07	1.02	0.628	0.522	0.284	0.336	

From the supplement of paper PMC10307832
